The values below come from PMC6086658, “Unified mechanisms for self-RNA recognition by RIG-I Singleton-Merten syndrome variants” (eLife, 2018).

Changes are numbered by the printed parent chain.

One test addresses T1, RIG-I K270I (Homo sapiens, UniProt O95786, K270I).
T1 construct: different full-length RIG-I mutants (1–925, N-terminal His-tag); made in house; host or cells: High Five (Trichoplusia ni) insect cells, baculovirus, pFBDM vector
T1 sequence (O95786 1-925 K270I): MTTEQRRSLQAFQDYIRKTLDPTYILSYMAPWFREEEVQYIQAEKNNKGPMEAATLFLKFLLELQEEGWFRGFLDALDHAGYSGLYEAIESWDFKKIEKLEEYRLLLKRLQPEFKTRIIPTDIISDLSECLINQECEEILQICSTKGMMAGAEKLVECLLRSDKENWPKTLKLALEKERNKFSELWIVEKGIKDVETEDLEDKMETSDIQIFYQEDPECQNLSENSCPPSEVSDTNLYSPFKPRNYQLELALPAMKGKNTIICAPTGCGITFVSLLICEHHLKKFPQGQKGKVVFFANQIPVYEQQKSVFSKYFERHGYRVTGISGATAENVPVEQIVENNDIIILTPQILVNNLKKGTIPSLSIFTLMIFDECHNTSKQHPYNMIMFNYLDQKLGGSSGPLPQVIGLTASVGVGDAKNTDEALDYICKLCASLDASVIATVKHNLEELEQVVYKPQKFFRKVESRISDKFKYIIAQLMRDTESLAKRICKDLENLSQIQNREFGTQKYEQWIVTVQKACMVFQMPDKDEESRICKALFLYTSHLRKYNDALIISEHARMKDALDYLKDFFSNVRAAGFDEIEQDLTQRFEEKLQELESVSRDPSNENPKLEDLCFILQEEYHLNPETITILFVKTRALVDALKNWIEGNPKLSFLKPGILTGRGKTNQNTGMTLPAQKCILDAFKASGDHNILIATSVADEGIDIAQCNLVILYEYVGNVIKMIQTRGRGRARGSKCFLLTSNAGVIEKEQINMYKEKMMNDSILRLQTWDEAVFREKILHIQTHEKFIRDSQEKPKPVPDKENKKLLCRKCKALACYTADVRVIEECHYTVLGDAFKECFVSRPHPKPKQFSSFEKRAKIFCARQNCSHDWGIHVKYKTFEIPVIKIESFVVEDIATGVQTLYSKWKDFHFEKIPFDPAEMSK
The test is described as follows: MANT-nucleotide binding, tryptophan fluorescence FRET. How it is done: (§1) Binding of MANT-ATP and MANT-ATPγS to different full-length RIG-I mutants (1–925, N-terminal His-tag) was determined via Förster resonance energy transfer from RIG-I to MANT-ATP (Jena Bioscience, Jena, Germany). All samples were prepared in 96-well black chimney microplates. 2.2 µM protein and equimolar concentrations of a 14mer dsRNA (5'-CGACGCUAGCGUCG-3', see 'Protein crystalization') were pre-incubated with different MANT-ATP concentrations (0.2 µM – 200 µM) for 15 min at room temperature in assay buffer (25 mM HEPES, 50 mM NaCl, 5 mM MgCl2, 1 mM DTT, pH 7). Fluorescence of MANT-ATP was measured in a TECAN M1000 microplate reader at λex/em = 290/448 nm, gain = 170 using an average of five reads per well. Assays were performed four times in independent experiments using the same protein purification batch. For determination of affinities fluorescence values were fitted to Equation (1) using R, where y is the fluorescence, [P] is the protein concentration, Bmax is the maximal fluorescence and KD is the dissociation constant. Fitting was performed globally on all available datasets. Representative values in figures are mean values ± SD.

The target of a further test is T2, RIG-I C268F (Homo sapiens, UniProt O95786, C268F).
T2 construct: made in house; host or cells: High Five (Trichoplusia ni) insect cells, baculovirus, pFBDM vector
T2 sequence (O95786 1-925 C268F): T1 sequence (O95786 1-925 K270I) with C268F, I270K
The test is described as above. How it is done: as §1

Where [1] appears, read: presence of equimolar 14mer dsRNA, n.f. = no fit possible as no saturation was reached.

The term Kd denotes the free concentration of one partner at which half of the binding sites on the other are occupied at equilibrium, for simple one-to-one binding. Turning to MANT-ATP, the Kd at RIG-I K270I (absence of RNA, n = 4, read-out: Affinity (KD) to RIG-I K270I) was 298 ± 81 µM; at RIG-I C268F (absence of RNA, n = 4, read-out: Affinity (KD) to RIG-I C268F), 166 ± 34 µM. Also, the “Affinity (KD) to RIG-I K270I + RNA” value at RIG-I K270I (setting [1]) is “n.f”. Further, the “Affinity (KD) to RIG-I C268F + RNA” value at RIG-I C268F (setting [1]) is reported as “n.f”.
